Measured values reported in patent publication US20050281904A1, “Kefir extract as an anti-cancer agent” (McGill University, priority 2000, published 2005).

Legend:
MCF-7 cells [1] = test: Cell proliferation experiments, MCF-7 cells (cell numbers after 8 days); assay type: cell-based, human; settings: for antiproliferative effect on MCF-7 cells (dose effect): HPLC fractions or ceramide compounds alone
Experimental: MCF7-E3 human breast cancer estrogen-sensitive cells were provided by Dr. D. Desaulniers of Health Canada, Ottawa. Cells were routinely propagated as a monolayer culture in Dulbcco's Modified Eale Medium (DMEM) supplemented with 10% heat-inactivated fetal bovine serum (FBS), in 75-cm^2 plastic dish at 37° C. in a humidified atmosphere with 5% CO2, and passage 3-4 days a time. A normal human mammary epithelial cell line was provided by Dr. M. Stampfer of UC Livermore Labs. Cells were routinely propagated as a monolayer culture in Mammary Epithelial Growth Media (MEGM, Clonetics, San Diego) supplemented with 10% heat-inactivated fetal bovine serum (FBS), in 75-cm^2 plastic dish at 37° C. in a humidified atmosphere with 5% CO2, and passage every week. For the experiments, both cells were harvest from the dish using 0.25% trypsin-EDTA solution.
Four kefir products (K1-K4) collected at various stages of kefir production at Liberty Brand Products, Inc. (Montreal, Canada) were used in this study. The large-scale production of kefir involves a two-step fermentation process. The first step is to prepare the cultures by incubating milk with kefir grains (2-10%) (K1) and fermented for 24 hrs. The grains are then removed by filtration and the resulting mother culture (K2) is added to pasteurized milk (K3), which is further fermented for 12 hrs and this final product (K4) is packaged for the consumer market. A pasteurized milk sample (M1) and two yogurt products; mixture of yogurt bacteria, pasteurized milk and milk powder (Y1) and the final yogurt product after 12 hrs of fermentation (Y2) were included for comparison. The yeast and bacteria in the samples were removed by centrifugation and filtration. About 35 ml each of the seven samples was centrifuged (32,000×g, 60 min, 4° C.) and the supernatant was filtered through a 0.45 μm Millipore filter followed by a 0.2 μm Millipore filter (Millipore Corporation, Bedford, USA). Extracts from two separate batches of kefir and yogurt were used.
Cells previously harvested were seeded in 24-well plates; 10,000 cells for MCF-7 per well in DMEM supplemented with 10% FBS and 5,000 cells for HMEC per well in MEGM supplemented with 10% FBS. The cells were allowed to attach for 24 hours. […] Cells were incubated at 37° C. in a humidified atmosphere with 5% CO2 for 8 days and the cell numbers in each well were counted using a Coulter Counter (Coulter Counter Corporation, USA). […]
The cell numbers expressed as percentage of control from different treatments and dose were compared using two-way ANOVA. When the interaction between treatments and dose was also significant the difference between treatment groups was determined by Tukey's HSD multiple comparison test. […]

MCF-7 cells [2] = settings: 1 μM; cited from earlier work

Compound	antiproliferative effect on MCF-7 cells (dose effect) (MCF-7 cells [1])	levels of angiogenesis stimulators VEGF and cathepsin D (MCF-7 cells [2])	dosage showing antiproliferative effect on MCF-7 cells (MCF-7 cells [1])
ceramide 1-phosphate	did not		
ceramide I	strong dose dependent antiproliferative effect		
CCCCCCCCCCCCC/C=C/[C@@H](O)[C@H](CO)NC(=O)CCCCC [C6 ceramide]	strong dose dependent antiproliferative effect	below 50 % of the control	
CC/C(=C(\c1ccccc1)c1ccc(OCCN(C)C)cc1)c1ccccc1 [Tamoxifen]			above 0.2 μM/L
